Results reported in US10092563B2, “Phosphatidylinositol 3-kinase inhibitors” (Gilead Sciences, Inc., priority 2014, dated 2018).

Columns and labels:
Assay in all cases: TR-FRET enzymatic assay of PI3K isoforms
Assay type in all cases: biochemical
PI3Kβ = PI3Kβ (Homo sapiens (Human), UniProt P42338); settings: for PI3Kγ/PI3Kβ ratio: ratio of IC50 PI3Kγ to IC50 PI3Kβ (fold)
Protocol: (§1) The compounds of formula (I) were characterized for their enzymatic activity against the PI3K isoforms. The activities were measured using a time-resolved fluorescence resonance energy transfer (TR-FRET) assay.

PI3Kδ = PI3Kδ (Homo sapiens (Human), UniProt O00329); settings: 2× Km ATP, 30 minutes at 25° C.
Protocol: as §1

PI3Kγ = PI3Kγ (Homo sapiens (Human), UniProt P48736); settings: 2× Km ATP, 30 minutes at 25° C.
Protocol: as §1

Sequence of PI3Kδ (O00329 whole entry): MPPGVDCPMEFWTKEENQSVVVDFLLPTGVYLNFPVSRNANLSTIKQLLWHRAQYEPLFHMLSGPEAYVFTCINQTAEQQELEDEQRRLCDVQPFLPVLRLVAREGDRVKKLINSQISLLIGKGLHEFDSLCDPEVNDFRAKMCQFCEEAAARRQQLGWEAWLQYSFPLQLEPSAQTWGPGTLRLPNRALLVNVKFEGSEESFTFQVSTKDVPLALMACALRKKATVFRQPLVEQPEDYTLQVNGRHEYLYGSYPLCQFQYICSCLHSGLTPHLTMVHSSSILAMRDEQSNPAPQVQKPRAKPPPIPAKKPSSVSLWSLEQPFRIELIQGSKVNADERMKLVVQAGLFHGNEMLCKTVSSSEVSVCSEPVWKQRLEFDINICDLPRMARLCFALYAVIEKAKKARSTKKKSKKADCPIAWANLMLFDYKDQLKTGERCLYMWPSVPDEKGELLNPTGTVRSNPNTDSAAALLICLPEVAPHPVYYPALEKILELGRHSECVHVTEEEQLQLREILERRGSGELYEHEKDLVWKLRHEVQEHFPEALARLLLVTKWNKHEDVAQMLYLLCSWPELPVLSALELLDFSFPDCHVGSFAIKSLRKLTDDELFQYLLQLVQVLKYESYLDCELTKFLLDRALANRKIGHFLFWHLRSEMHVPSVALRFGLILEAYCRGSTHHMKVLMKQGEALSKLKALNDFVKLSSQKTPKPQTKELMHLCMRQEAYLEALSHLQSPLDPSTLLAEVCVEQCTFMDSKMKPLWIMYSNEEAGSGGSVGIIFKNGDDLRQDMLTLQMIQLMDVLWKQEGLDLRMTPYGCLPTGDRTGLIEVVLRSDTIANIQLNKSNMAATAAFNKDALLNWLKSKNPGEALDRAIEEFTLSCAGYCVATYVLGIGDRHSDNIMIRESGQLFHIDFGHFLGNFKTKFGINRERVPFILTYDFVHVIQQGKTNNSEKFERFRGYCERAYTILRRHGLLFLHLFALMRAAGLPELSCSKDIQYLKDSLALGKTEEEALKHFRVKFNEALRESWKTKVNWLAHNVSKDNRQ
Sequence of PI3Kδ (P27986 whole entry partner): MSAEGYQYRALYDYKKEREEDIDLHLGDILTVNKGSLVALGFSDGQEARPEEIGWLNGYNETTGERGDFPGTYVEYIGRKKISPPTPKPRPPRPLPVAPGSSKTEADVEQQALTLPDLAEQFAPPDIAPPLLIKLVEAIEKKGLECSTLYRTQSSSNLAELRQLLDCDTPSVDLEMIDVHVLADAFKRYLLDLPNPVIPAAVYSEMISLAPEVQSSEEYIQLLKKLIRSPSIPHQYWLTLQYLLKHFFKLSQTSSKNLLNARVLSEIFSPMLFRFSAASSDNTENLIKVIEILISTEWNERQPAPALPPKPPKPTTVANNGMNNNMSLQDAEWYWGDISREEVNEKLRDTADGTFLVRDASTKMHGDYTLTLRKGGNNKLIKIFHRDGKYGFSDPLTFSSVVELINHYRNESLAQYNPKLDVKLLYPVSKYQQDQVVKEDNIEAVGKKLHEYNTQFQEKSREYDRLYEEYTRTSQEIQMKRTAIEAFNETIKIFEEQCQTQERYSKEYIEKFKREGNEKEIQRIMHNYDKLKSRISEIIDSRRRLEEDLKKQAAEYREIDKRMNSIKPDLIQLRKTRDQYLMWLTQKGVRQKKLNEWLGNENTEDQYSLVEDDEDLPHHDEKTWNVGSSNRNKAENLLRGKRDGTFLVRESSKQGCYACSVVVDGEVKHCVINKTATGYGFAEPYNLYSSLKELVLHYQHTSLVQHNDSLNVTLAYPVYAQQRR
Sequence of PI3Kβ (P42338 whole entry, canonical isoform): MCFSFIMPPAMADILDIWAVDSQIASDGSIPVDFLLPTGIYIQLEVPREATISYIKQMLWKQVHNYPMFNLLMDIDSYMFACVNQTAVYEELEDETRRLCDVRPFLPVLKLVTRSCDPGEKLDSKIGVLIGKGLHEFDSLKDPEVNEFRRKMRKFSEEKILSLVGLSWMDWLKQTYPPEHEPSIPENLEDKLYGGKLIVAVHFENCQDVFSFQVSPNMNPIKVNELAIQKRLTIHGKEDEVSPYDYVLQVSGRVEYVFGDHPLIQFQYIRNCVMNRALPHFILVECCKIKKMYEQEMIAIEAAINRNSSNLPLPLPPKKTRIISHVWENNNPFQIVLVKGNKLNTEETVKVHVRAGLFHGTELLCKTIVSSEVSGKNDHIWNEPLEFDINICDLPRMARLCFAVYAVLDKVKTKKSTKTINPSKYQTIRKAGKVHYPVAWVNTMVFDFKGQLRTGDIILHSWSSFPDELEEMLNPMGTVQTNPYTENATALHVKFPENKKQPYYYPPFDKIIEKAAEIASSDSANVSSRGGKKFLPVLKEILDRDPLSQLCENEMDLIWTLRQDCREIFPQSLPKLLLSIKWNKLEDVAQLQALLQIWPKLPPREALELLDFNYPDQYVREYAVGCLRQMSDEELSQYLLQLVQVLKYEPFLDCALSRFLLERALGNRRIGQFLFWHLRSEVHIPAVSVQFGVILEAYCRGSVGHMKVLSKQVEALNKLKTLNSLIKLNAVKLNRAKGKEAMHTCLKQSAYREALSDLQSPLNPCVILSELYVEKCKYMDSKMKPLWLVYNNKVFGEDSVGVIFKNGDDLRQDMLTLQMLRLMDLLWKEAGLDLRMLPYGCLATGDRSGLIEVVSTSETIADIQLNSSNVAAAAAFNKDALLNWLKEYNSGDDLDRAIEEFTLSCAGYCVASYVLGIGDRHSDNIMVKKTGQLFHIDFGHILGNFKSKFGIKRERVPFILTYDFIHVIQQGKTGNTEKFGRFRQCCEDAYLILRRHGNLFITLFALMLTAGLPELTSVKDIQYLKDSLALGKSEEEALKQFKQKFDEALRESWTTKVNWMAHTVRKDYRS
Sequence of PI3Kβ (P27986 whole entry partner, canonical isoform): as the sequence (P27986 whole entry partner) above
Sequence of PI3Kγ (P48736 whole entry): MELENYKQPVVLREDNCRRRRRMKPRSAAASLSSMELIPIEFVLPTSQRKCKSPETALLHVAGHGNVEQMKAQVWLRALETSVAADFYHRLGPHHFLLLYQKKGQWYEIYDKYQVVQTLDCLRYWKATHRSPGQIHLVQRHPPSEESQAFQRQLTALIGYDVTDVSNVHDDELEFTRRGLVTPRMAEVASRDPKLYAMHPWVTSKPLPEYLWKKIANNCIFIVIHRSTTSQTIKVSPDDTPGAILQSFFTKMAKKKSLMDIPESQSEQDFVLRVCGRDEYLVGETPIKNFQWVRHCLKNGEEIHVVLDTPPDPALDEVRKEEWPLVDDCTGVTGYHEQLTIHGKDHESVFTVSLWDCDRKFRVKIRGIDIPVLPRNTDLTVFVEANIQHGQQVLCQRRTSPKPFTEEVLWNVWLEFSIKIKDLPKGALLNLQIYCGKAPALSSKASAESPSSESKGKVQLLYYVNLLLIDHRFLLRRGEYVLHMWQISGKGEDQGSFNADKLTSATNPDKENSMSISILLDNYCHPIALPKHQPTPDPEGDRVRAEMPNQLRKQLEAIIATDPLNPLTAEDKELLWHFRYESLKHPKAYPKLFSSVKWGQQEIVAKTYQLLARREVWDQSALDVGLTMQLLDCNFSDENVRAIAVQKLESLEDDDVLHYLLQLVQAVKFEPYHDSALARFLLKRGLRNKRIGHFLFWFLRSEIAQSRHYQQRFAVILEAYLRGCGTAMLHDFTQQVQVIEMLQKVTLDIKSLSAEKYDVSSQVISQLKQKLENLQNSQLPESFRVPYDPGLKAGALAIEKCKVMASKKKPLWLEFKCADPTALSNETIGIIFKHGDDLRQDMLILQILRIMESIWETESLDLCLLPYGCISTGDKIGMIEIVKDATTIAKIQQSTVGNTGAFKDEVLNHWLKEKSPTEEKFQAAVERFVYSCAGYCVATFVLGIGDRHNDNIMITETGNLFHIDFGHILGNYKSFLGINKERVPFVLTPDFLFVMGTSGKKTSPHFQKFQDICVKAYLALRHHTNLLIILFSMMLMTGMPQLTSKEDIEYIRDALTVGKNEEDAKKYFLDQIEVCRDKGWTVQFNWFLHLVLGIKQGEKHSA
Sequence of PI3Kγ (Q8WYR1 whole entry partner): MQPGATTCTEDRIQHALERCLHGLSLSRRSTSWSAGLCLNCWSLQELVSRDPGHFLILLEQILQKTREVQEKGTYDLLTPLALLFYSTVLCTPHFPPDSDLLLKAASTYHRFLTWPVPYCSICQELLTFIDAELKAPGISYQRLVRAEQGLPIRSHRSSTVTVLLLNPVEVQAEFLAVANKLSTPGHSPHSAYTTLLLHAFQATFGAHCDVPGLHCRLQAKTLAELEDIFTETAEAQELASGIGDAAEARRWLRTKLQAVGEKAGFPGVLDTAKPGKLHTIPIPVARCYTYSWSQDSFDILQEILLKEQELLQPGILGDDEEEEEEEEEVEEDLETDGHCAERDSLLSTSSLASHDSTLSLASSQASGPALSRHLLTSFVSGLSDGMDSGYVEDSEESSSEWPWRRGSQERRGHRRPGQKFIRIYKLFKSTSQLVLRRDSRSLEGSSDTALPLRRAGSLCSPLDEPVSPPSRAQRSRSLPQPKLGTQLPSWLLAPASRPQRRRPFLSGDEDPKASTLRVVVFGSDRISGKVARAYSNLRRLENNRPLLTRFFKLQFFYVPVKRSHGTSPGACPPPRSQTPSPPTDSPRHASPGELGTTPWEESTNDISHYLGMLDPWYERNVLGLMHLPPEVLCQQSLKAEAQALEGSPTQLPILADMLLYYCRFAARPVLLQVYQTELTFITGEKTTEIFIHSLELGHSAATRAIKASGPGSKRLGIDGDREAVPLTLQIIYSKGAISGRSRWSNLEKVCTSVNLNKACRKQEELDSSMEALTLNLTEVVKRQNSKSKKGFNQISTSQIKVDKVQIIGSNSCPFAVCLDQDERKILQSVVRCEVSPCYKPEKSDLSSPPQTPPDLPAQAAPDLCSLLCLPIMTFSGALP

SMILES | IC50 (PI3Kβ) [nM] | IC50 (PI3Kδ) [nM] | IC50 (PI3Kγ) [nM] | PI3Kγ/PI3Kβ ratio (PI3Kβ) | PI3Kγ/PI3Kβ ratio (PI3Kβ; listed as (S)-2,4-diamino-6-(1-(5-chloro-4-oxo-3-phenyl-3,4-dihydroquinazolin-2-yl)ethyl))
Cc1nc(N)nc(N[C@@H](C)c2nc3c(F)ccc(Cl)c3c(=O)n2C2[C@H]3CNC[C@@H]23)c1C#N (stereo partly drawn) [Compound 16, 4-(((1S)-1-(3-((1R,5S)-3-azabicyclo[3.1.0]hexan-6-yl)-5-chloro-8-fluoro-4-oxo-3,4-dihydroquinazolin-2-yl)ethyl)amino)-2-amino-6-methylpyrimidine-5-carbonitrile] | 2 | 6 | 2600 |  | 
C[C@H](Nc1nc(N)nc(N)c1C#N)c1nc2c(F)ccc(Cl)c2c(=O)n1C1[C@H]2CNC[C@@H]12 (stereo partly drawn) [Compound 17, 4-(((1S)-1-(3-((1R,5S)-3-azabicyclo[3.1.0]hexan-6-yl)-5-chloro-8-fluoro-4-oxo-3,4-dihydroquinazolin-2-yl)ethyl)amino)-2,6-diaminopyrimidine-5-carbonitrile] | 3 | 4 | 2800 |  | 
C[C@H](Nc1nc(N)nc(N)c1C#N)c1nc2cccc(Cl)c2c(=O)n1[C@@H]1CCCNC1 [Compound 27, 2,4-diamino-6-(((S)-1-(5-chloro-4-oxo-3-((R)-piperidin-3-yl)-3,4-dihydroquinazolin-2-yl)ethyl)amino)pyrimidine-5-carbonitrile] |  | 830 | > 10000 |  | 
C[C@H](Nc1nc(N)nc(N)c1C#N)c1nc2cccc(Cl)c2c(=O)n1-c1ccccc1 [Compound X, (S)-2,4-diamino-6-((1-(5-chloro-4-oxo-3-phenyl-3,4-dihydroquinazolin-2-yl)ethyl)amino)pyrimidine-5-carbonitrile, reference compound] |  |  |  | 0.6 | less than 1
